Reference: patent publication US11844767B2, “Composition and methods for stimulating clearance of amyloid-beta protein” (Rush University Medical Center, priority 2016, dated 2023)

Assays:
TFEB = conditions: alone and in conjunction with all-trans-retinoic acid; cited from earlier work
LDLR = experiment: Quantitative RT-PCR of LDLR expression in astrocytes; format: cell-based, mouse
Experimental: The mRNA quantification was performed using the ABI-Prism7700 sequence detection system using SYBR Select master mix. The mRNA expression of the targeted genes was normalized to the level of Gapdh mRNA and data was processed by the ABI Sequence Detection System 1.6 software.

Structure (SMILES): Cc1ccc(C)c(OCCCC(C)(C)C(=O)O)c1 [GFB, gemfibrozil]
- TFEB in brain cells (TFEB): capable of enhancing TFEB
- expression of LDLR (LDLR; PPARα(−/−) cells): not
- expression of LDLR (LDLR; WT astrocytes): increased
